Assay results taken from publication PMC10820528, “New Rare Triterpene Glycosides from Pacific Sun Star, Solaster pacificus, and Their Anticancer Activity” (Marine Drugs, 2023).
Like-named read-outs stand apart in the source and are kept apart here.

Assays:
[1] = system: RPMI-7951 cells; conditions: non-toxic concentration; cited from earlier work
[2] = system: MDA-MB-231 cells; conditions: non-toxic concentration; cited from earlier work
[3] = system: HT-29 cells; conditions: non-toxic concentration; cited from earlier work
[4] = system: JB6 Cl41 cells; parameters: method as in PMID 35323516; conditions: induced by chemical carcinogens (EGF and TPA) or ionizing radiation (X-rays and UVB), non-toxic concentrations; cited from earlier work
[5] = system: SK-MEL-2 cancer cells; parameters: method as in PMID 35323516; conditions: non-toxic concentrations; cited from earlier work
[6] = system: colorectal carcinoma HCT 116 cells; experiment: cells; format: cell-based; conditions: for IC50: Homo sapiens, read-out: IC50, HCT 116
Description: We determined the cytotoxicity of compounds 1–3 and 6–8 against human embryonic kidney HEK 293, colorectal carcinoma HCT 116, and breast cancer MDA-MB-231 cells by the MTS assay, after 24 h of treatment with the compounds. We calculated the inhibiting concentration that cause death of 50% of cells (IC50) and the selectivity index (SI) of the compounds tested (Table 4).
(§1) The human embryonic kidney HEK 293 cells (ATCC® CRL-1573™), breast cancer MDA-MB-231 cells (ATCC® HTB-26™), and colorectal carcinoma HCT 116 cells (ATCC® CCL-247™) were purchased from the American Type Culture Collection (Manassas, VA, USA). The HEK 293 and MDA-MB-231 cells were cultured in DMEM; the HCT 116 cells were cultured in the McCoy’s 5A medium at 37 °C in a humidified atmosphere containing 5% CO2. The culture media were supplemented with 10% heat-inactivated FBS and a 1% penicillin/streptomycin solution. The number of passages was carefully controlled, and contamination by Mycoplasma was monitored on a regular basis.
(§2) Compounds 1–3, and 6–8 were dissolved in sterile dimethyl sulfoxide (DMSO), to prepare stock concentrations of 20 mM. Cells were treated with serially diluted 1–3, 6–8 (0.3–100 µM) (with the culture medium used as diluent) (the final concentration of DMSO was less than 0.5%). The vehicle control was the cells treated with an equivalent volume of DMSO (the final concentration was less than 0.5%) for all of the presented experiments.
(§3) HEK 293 (1.0 × 10^4/200 µL), HCT 116 (1.0 × 10^4/200 µL), and MDA-MB-231 (0.8 × 10^4/200 µL) cells were seeded in a 96-well plate and incubated for 24 h at 37 °C in a CO2 incubator. […] The cells were subsequently incubated with 15 µL of the MTS reagent for 3 h. The absorbance of each well was measured at 490/630 nm on a Power Wave XS microplate reader (BioTek, Winooski, VT, USA).
(§4) The IC50 concentration was calculated using the AAT-Bioquest® online calculator [24]. The selectivity index (SI) was calculated as described previously, using the following formula: SI = IC50 of the compounds for normal cells (HEK 293) divided by IC50 of the same compounds for the human colorectal adenocarcinoma and breast cancer (HCT 116 and MDA-MB-231) cell lines.

[7] = system: breast cancer MDA-MB-231 cells; experiment: cells; format: cell-based; conditions: for IC50: read-out: IC50, MDA-MB-231
Description: (§5) We calculated the inhibiting concentration that cause death of 50% of cells (IC50) and the selectivity index (SI) of the compounds tested (Table 4).
as §1, §2, §3, §4

[8] = system: human embryonic kidney HEK 293 cells; experiment: cells; format: cell-based; conditions: for IC50: read-out: IC50, HEK 293
Description: as §5, §1, §2, §3, §4

[9] = HCT-116, MTS assay, 24 h of cell incubation, mean ± SD
[10] = Homo sapiens, MDA-MB-231, MTS assay, 24 h of cell incubation, mean ± SD
[11] = Homo sapiens, HEK293, MTS assay, 24 h of cell incubation, mean ± SD
[12] = MTS assay, cisplatin, 48 h of cell incubation, mean ± SD

CO[C@@H]1[C@@H](O)[C@H](O[C@@H]2[C@@H](O)[C@H](O[C@H]3[C@H](O)[C@@H](O[C@@H]4OC[C@@H](O)[C@H](O)[C@H]4O)[C@H](O[C@H]4[C@H](O[C@H]5CC[C@]6(C)[C@@H]7CCC89C(=O)O[C@@](C)(/C=C\C=C(C)C)[C@H]8[C@@H](OC(C)=O)C[C@@]9(C)C7=CC[C@H]6C5(C)C)OC[C@@H](O)[C@@H]4O)O[C@@H]3C)O[C@H](CO)[C@H]2O)OC[C@H]1O (some centres unmarked) [cucumarioside C1]
colony formation of RPMI-7951 cells [1]: almost completely suppress
colony formation of MDA-MB-231 cells [2]: almost completely suppress
colony formation of HT-29 cells [3]: almost completely suppress

CO[C@@H]1[C@@H](O)[C@H](O[C@@H]2[C@@H](O)[C@H](O[C@H]3[C@H](O)[C@@H](O[C@@H]4OC[C@@H](O)[C@H](O)[C@H]4O)[C@H](O[C@H]4[C@H](O[C@H]5CC[C@]6(C)[C@@H]7CCC89C(=O)O[C@@](C)(/C=C/C=C(C)C)[C@H]8[C@@H](OC(C)=O)C[C@@]9(C)C7=CC[C@H]6C5(C)C)OC[C@@H](O)[C@@H]4O)O[C@@H]3C)O[C@H](CO)[C@H]2O)O[C@H](CO)[C@H]1O (some centres unmarked) [pacificusoside D]
neoplastic transformation of JB6 Cl41 cells [4]: significantly inhibit
colony formation of SK-MEL-2 cancer cells [5]: highest inhibiting effect

CC(=O)OC1CC2(C)C3=CCC4C(C)(C)C(OC5OCC(O)C(O)C5OC5OC(C)C(O)C(O)C5OC5OCC(O)C(O)C5O)CCC4(C)C3CCC23C(=O)OC(C)(C=CC=C(C)C)C13 (centres unmarked) [Compound 7, cucumarioside B1]
IC50 ([6]; HCT-116, 24 h): 35.6 ± 0.6 µM
IC50 ([7]; Homo sapiens, MDA-MB-231, 24 h): 34 ± 2.9 µM
IC50 ([8]; Homo sapiens, HEK293, 24 h): 28.5 ± 1.5 µM

COC1C(O)COC(OC2C(O)C(CO)OC(OC3C(C)OC(OC4C(OC5CCC6(C)C7CCC89C(=O)OC(C)(C=CC=C(C)C)C8C(OC(C)=O)CC9(C)C7=CCC6C5(C)C)OCC(O)C4O)C(O)C3O)C2O)C1O (centres unmarked) [Compound 8, cucumarioside A5]
IC50 ([6]; HCT-116, 24 h): 11.4 ± 2.7 µM
IC50 ([7]; Homo sapiens, MDA-MB-231, 24 h): 13.1 ± 4.2 µM
IC50 ([8]; Homo sapiens, HEK293, 24 h): 6.2 ± 0.7 µM

pacificusoside C
colony formation of RPMI-7951 cells [1]: almost completely suppress
colony formation of MDA-MB-231 cells [2]: almost completely suppress
colony formation of HT-29 cells [3]: almost completely suppress

COC1C(O)COC(OC2C(O)C(CO)OC(OC3C(C)OC(OC4C(OC5CCC6(C)C7CCC89C(=O)OC(C)(/C=C/C=C(C)C)C8C(OC(C)=O)CC9(C)C7=CCC6C5(C)C)OCC(O)C4O)C(OC4OCC(O)C(O)C4O)C3O)C2O)C1O (centres unmarked) [cucumarioside C2]
colony formation of RPMI-7951 cells [1]: almost completely suppress
colony formation of MDA-MB-231 cells [2]: almost completely suppress
colony formation of HT-29 cells [3]: almost completely suppress

COC1C(O)COC(OC2C(O)C(CO)OC(OC3C(C)OC(OC4C(OC5CCC6(C)C7=C(CCC6C5(C)C)C5(C)CC(OC(C)=O)C6C(C)(C=CC=C(C)C)OC(=O)C65CC7)OCC(O)C4O)C(O)C3O)C2O)C1O [Compound 6, 3β-O-[3-O-methyl-β-D-xylopyranosyl-(1→3)-β-D-glucopyranosyl-(1→4)-β-D-quinovopyranosyl-(1→2)-β-D-xylopyranosyl]-16β-acetoxyholosta-8(9),22E,24-triene]
IC50 [6, 9]: 25.5 ± 1.4 µM
IC50 [7, 10]: 29.8 ± 2.1 µM
IC50 [8, 11]: 15.3 ± 1.2 µM

COC1C(O)C(CO)OC(OC2C(O)C(CO)OC(OC3C(C)OC(OC4C(OC5CCC6(C)C7CCC89C(=O)OC(C)(C=CC=C(C)C)C8C(OC(C)=O)CC9(C)C7=CCC6C5(C)C)OCC(O)C4O)C(OC4OCC(O)C(O)C4O)C3O)C2O)C1O (centres unmarked) [cucumarioside D]
neoplastic transformation of JB6 Cl41 cells [4]: significantly inhibit
colony formation of SK-MEL-2 cancer cells [5]: highest inhibiting effect

CO[C@@H]1[C@@H](O)[C@H](O[C@@H]2[C@@H](O)[C@H](O[C@H]3[C@H](O)[C@@H](O)[C@H](O[C@H]4[C@H](O[C@H]5CC[C@]6(C)C7=C(CC[C@H]6C5(C)C)[C@]5(C)C[C@H](O)[C@H]([C@@](C)(O)CCC=C(C)C)[C@@]5(CO)CC7)OC[C@@H](O)[C@@H]4O)O[C@@H]3C)O[C@H](CO)[C@H]2O)OC[C@H]1O [Compound 3, (20S)-3β-O-[3-O-methyl-β-D-xylopyranosyl-(1→3)-β-D-glucopyranosyl-(1→4)-β-D-quinovopyranosyl-(1→2)-β-D-xylopyranosyl]-16β,18,20-trihydroxy-5α-lanosta-8(9),24-diene]
cytotoxic activity in words, HCT 116 [6]: Moderate
IC50 [6, 9]: 42.2 ± 0.4 µM
SI (selectivity index), HCT 116 ([6]; mean IC50 against normal cells (HEK 293)/mean IC50 against HCT 116, 24 h): 1.25
cytotoxic activity in words, MDA-MB-231 [7]: Moderate
IC50 [7, 10]: 36.7 ± 3.3 µM
SI (selectivity index), MDA-MB-231 ([7]; mean IC50 against normal cells (HEK 293)/mean IC50 against MDA-MB-231, 24 h): 1.4
cytotoxic activity in words, HEK 293 [8]: Moderate
IC50 [8, 11]: 52.8 ± 0.8 µM

C=C(C)C1C2CC3(C)C4=CCC5C(C)(C)C(OC6OCC(O)C(O)C6OC6OC(C)C(O)C(O)C6OC6OCC(O)C(O)C6O)CCC5(C)C4CCC13C(=O)O2 [Compound 1, 3β-O-[β-D-xylopyranosyl-(1→2)-β-D-quinovopyranosyl-(1→2)-β-D-xylopyranosyl]-23,24,25,26,27-pentanor-5α-lanosta-7,20(22)-diene-18(16)-lactone]
IC50 [6, 9]: 81 ± 3.2 µM
IC50 [7, 10]: 51.2 ± 0.8 µM
IC50 [8, 11]: 27 ± 0.3 µM

N.N.[Cl][Pt][Cl] [Cisplatin, cisplatin, reference compound]
IC50 [7, 12]: 34.5 ± 0.5 µM
IC50 [8, 12]: 64.6 ± 1.5 µM
